For data set [1], the system named is OATP1B2. Put plainly: Untargeted metabolomics of plasma and DRG, WT vs OATP1B2-deficient mice. The format is in vivo, mouse. An excerpt:
(A) Schematic overview of the untargeted metabolomics screen to discover an endogenous biomarker of OATP1B2. […] Positive fold change indicates higher plasma concentration in OATP1B2^–/– mice (n = 6 per group). […] (C) Volcano plot of differentially endogenous metabolites in untreated whole DRG samples of WT mice or OATP1B2^–/– mice. Negative fold change indicates lower DRG levels in OATP1B2^–/– mice (n = 6 per group). (D) Plasma levels and DRG/plasma ratios of α-tocopherol in WT mice or OATP1B2^–/– mice in secondary validation studies. […] Data are normalized to baseline levels observed in WT mice (n = 3 per group).

Data set [2] concerns the target T1, hOATP1B1 (Homo sapiens, UniProt Q9Y6L6).
T1 sequence (Q9Y6L6 1-691): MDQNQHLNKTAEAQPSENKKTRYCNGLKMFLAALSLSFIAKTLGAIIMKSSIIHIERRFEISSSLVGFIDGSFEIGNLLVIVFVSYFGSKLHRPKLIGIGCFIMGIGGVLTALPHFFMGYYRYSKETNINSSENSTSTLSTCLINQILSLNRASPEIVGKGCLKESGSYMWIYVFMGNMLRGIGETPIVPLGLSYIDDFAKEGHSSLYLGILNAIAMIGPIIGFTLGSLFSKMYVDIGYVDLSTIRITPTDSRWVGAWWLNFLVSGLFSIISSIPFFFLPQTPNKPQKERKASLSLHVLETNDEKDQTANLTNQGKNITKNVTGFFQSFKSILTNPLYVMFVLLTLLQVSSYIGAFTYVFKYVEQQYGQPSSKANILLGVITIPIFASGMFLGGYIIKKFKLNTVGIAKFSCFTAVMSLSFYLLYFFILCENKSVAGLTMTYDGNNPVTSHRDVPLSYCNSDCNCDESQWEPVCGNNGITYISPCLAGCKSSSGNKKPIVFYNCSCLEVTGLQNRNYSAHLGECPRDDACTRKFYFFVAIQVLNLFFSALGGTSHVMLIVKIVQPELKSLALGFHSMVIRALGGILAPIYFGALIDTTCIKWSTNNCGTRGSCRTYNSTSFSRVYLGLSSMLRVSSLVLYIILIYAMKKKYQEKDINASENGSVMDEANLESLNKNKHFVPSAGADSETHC
Put plainly: α-tocopherol uptake in HEK293 cells overexpressing hOATP1B1. Format: in vitro ADME.

Data set [3] deals with T2, hOATP1B3 (Homo sapiens, UniProt Q9NPD5).
T2 sequence (Q9NPD5 1-702): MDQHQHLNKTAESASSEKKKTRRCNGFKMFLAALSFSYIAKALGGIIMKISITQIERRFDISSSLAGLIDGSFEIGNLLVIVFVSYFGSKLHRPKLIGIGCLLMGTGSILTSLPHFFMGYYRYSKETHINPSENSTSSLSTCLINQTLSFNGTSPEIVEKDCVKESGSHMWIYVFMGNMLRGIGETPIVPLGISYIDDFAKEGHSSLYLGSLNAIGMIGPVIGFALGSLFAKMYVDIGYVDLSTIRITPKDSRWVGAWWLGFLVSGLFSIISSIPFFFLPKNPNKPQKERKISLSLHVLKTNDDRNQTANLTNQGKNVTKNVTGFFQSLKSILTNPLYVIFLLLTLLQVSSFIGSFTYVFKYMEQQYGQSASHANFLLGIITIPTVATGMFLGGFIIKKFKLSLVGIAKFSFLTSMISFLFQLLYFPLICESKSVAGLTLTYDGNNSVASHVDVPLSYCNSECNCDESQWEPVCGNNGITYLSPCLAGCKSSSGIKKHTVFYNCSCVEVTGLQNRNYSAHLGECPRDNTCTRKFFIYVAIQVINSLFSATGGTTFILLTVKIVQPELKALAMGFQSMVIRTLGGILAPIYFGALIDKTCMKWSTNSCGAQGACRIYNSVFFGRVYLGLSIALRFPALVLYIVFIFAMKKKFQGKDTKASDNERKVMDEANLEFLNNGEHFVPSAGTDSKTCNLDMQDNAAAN
The data set is described as follows: α-tocopherol uptake in HEK293 cells overexpressing hOATP1B3. Format: in vitro ADME.

The test system of data set [4] is OATP1B2. Put plainly: Plasma level and DRG/plasma ratio of α-tocopherol in mice (biomarker of OATP1B2 function). Format: in vivo, mouse.
The conditions of data set [5]: cited from earlier work.
The target in data set [6] is T2, hOATP1B3. The data set is described as follows: Inhibition of EβG uptake in HEK293 cells overexpressing hOATP1B3.
In data set [7] the target is T2, hOATP1B3. Put plainly: EβG uptake in HEK293 cells overexpressing hOATP1B3. The format is in vitro ADME.
Data set [8] addresses T3, mOATP1B2 (Mus musculus, UniProt Q9JJL3).
T3 sequence (Q9JJL3 1-689): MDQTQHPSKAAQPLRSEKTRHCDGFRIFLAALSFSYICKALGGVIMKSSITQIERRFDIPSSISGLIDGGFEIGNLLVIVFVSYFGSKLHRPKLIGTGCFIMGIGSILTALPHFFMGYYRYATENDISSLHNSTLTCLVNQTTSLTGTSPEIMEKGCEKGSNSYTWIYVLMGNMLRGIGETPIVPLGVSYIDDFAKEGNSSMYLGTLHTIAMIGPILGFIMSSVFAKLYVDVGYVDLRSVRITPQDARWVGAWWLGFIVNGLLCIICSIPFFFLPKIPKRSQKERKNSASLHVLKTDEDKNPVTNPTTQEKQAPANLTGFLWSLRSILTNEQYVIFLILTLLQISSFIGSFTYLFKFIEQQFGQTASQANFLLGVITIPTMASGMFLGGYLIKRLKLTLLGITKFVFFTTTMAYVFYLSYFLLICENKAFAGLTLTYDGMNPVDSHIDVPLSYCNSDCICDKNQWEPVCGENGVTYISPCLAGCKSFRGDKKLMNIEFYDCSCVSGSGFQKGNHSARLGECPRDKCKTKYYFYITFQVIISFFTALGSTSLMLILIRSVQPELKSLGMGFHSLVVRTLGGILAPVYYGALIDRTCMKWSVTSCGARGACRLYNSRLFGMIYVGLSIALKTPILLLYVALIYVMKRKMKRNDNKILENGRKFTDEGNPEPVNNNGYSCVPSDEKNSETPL
The data set is described as follows: EβG uptake in HEK293 cells overexpressing mOATP1B2. Format: in vitro ADME. How it is done:
DRG, sciatic and caudal nerves were prepared, stained with toluidine blue, and examined with a Zeiss Axioskop WideField Light Microscope, as described previously (10). Representative images were captured with a QIClick Digital CCD color camera. For DRG morphometrics, the somatic size was measured for each cell containing nucleolus, and at least 200 DRG neurons per animal were manually measured and analyzed with a computer-assisted image analyzer (ImageJ software, Bethesda, MD). For sciatic nerve, all myelinated fibers evaluable in the analyzed space were counted and the internal (axonal) and external (total) diameters of myelinated fibers were measured on at least 500 myelinated fibers/nerve. The histograms of g-ratio (axonal diameter/whole fiber diameter as a measure of myelination degree in each fiber) distribution were generated. An observer blinded to the group compositions performed all the morphometric determinations.
Cellular accumulation. Human embryonic kidney (HEK293) cells (ATCC) overexpressing OATP1B1, […]
After incubation, transport was halted by aspirating radiolabeled drug, and rinsing the cells three times with ice-cold 1X PBS. Total radioactivity originating from the substrates was measured by lysing the cells with 1N NaOH, neutralized with 2N HCL, and measuring total radioactivity by liquid scintillation counting using an LS 6500 Counter (Beckman). […]

Data set [9] addresses T1, hOATP1B1. Put plainly: EβG uptake in HEK293 cells overexpressing hOATP1B1. Format: in vitro ADME.

We go through two compounds from publication PMC10443802, “Targeting a xenobiotic transporter to ameliorate vincristine-induced sensory neuropathy” (JCI Insight, 2023).

Where “and” joins values, the source holds several entries; their conditions need not be identical. Equal entries are not always repeated.

As for `Cc1c(C)c2c(c(C)c1O)CC[C@@](C)(CCC[C@H](C)CCC[C@H](C)CCCC(C)C)O2` [α-tocopherol], the “Fold of Change KO/WT” value in data set [1] (DRG samples, untreated OATP1B2-deficient (KO) vs wild-type mice) is 0.730; in data set [1] (untreated plasma, OATP1B2-deficient (KO) vs wild-type mice), 2.03. The “α-tocopherol uptake (% of vehicle)” value in data set [2] (VC cells, control for hOATP1B1) is 88.8965% and 111.905% and 99.1984%; in data set [2] (cells overexpressing hOATP1B1) it was 109.574% and 76.2241% and 88.2425%; in data set [3] (VC cells, control for hOATP1B3), 86.9835% and 91.7117% and 121.305% and 85.9356% and 106.189% and 107.875%; in data set [3] (cells overexpressing hOATP1B3), 213.78% and 147.762% and 148.702% and 127.524% and 133.603% and 184.662%. The Substrate status entry in data set [3] (OATP1B3) is listed as “transported substrate of OATP1B3”. Also, the “Level of α-tocopherol (% of wild-type)” value in data set [4] (DRG, OATP1B2(-/-) mice) is 28.1345 % of wild-type and 39.8965 % of wild-type and 39.7351 % of wild-type and 42.7289 % of wild-type and 36.0477 % of wild-type and 32.6784 % of wild-type; in data set [4] (DRG, Wild-type mice), 86.7441 % of wild-type and 109.645 % of wild-type and 120.39 % of wild-type and 114.671 % of wild-type and 77.0519 % of wild-type and 91.498 % of wild-type; in data set [4] (Plasma, OATP1B2(-/-) mice) it was 240.656 % of wild-type and 154.285 % of wild-type and 188.158 % of wild-type and 206.445 % of wild-type and 170.946 % of wild-type and 257.161 % of wild-type; in data set [4] (Plasma, Wild-type mice), 128.573 % of wild-type and 75.6647 % of wild-type and 109.778 % of wild-type and 78.7903 % of wild-type and 110.315 % of wild-type and 96.8791 % of wild-type. The “Level of α-tocopherol (% of wild-type baseline), relative DRG/plasma ratio” value in [4] (KO (OATP1B2-/-) mice) is 39.9993 % of wild-type baseline and 37.2252 % of wild-type baseline and 46.6384 % of wild-type baseline; in data set [4] (WT mice, baseline), 92.6568 % of wild-type baseline and 110.888 % of wild-type baseline and 96.4551 % of wild-type baseline. The “Level of α-tocopherol (% of wild-type baseline), DRG/Plasma Ratio” value in data set [4] (KO mice) is 39.9993% and 37.2252% and 46.6384%; in data set [4] (WT mice), 92.6568% and 110.888% and 96.4551%. Further, the “Level of α-tocopherol (% of wild-type baseline), Plasma” value in data set [4] (KO mice) was 178.006% and 210.63% and 138.224%; in [4] (WT mice), 108.759% and 91.8035% and 99.4376%. Also, in [5], the “Share recovered in the liver” value is given as “up to 90%”. For the same compound, the “Inhibition of transporter-mediated uptake of EβG” value in data set [6] is reported as “can mediate inhibition of transporter-mediated uptake”.
On to `C[C@]12CC[C@@H]3c4ccc(O)cc4CC[C@H]3[C@@H]1CC[C@@H]2O[C@@H]1O[C@H](C(=O)O)[C@@H](O)[C@H](O)[C@H]1O` [EβG, estradiol-17β-ᴅ-glucuronide], for which the “EβG uptake (% of vector)” value in [7] was 5469.07 % of vector and 5408.81 % of vector and 5929.51 % of vector; in data set [8], 2727.12 % of vector and 2435.39 % of vector and 2079.28 % of vector; in data set [9], 1260.82 % of vector and 1125.55 % of vector and 1194.22 % of vector.
